test system: not listed separately; assay: Ratio of drug uptake in medulla to cerebellum in anesthetized cynomolgus monkey after 85 mins postinjection; format: ADME, organism-based, Macaca fascicularis; conditions: in vivo

SMILES | Ratio
O=C(OCC[18F])C1C2CCC(CC1c1cccc(/C=C\I)c1)N2 (centres undefined) | 1.3

test system: not listed separately; assay: Drug uptake in anesthetized cynomolgus monkey brain occipital lobe after 215 mins postinjection; format: ADME, organism-based, Macaca fascicularis; conditions: in vivo

SMILES | Drug uptake
O=C(OCC[18F])C1C2CCC(CC1c1cccc(/C=C\I)c1)N2 (centres undefined) | 1.28

test system: not listed separately; assay: Drug uptake in anesthetized cynomolgus monkey brain frontal lobe after 2.5 mins postinjection; format: ADME, organism-based, Macaca fascicularis; conditions: in vivo

SMILES | Drug uptake
O=C(OCC[18F])C1C2CCC(CC1c1cccc(/C=C\I)c1)N2 (centres undefined) | 0.28

test system: not listed separately; assay: Drug uptake in anesthetized cynomolgus monkey brain frontal lobe after 35 mins postinjection; format: ADME, organism-based, Macaca fascicularis; conditions: in vivo

SMILES | Drug uptake
O=C(OCC[18F])C1C2CCC(CC1c1cccc(/C=C\I)c1)N2 (centres undefined) | 2.89

test system: not listed separately; assay: Drug uptake in anesthetized cynomolgus monkey brain frontal lobe after 45 mins postinjection; format: ADME, organism-based, Macaca fascicularis; conditions: in vivo, 0.75 h

SMILES | Drug uptake
O=C(OCC[18F])C1C2CCC(CC1c1cccc(/C=C\I)c1)N2 (centres undefined) | 2.95

test system: not listed separately; assay: Ratio of drug uptake in pons to cerebellum in anesthetized cynomolgus monkey after 0.5 mins postinjection; format: ADME, organism-based, Macaca fascicularis; conditions: in vivo

SMILES | Ratio
O=C(OCC[18F])C1C2CCC(CC1c1cccc(/C=C\I)c1)N2 (centres undefined) | 1.7

test system: Putamen; assay: Drug uptake in anesthetized cynomolgus monkey brain putamen after 215 mins postinjection; format: ADME, organism-based, Macaca fascicularis; conditions: in vivo

SMILES | Drug uptake
O=C(OCC[18F])C1C2CCC(CC1c1cccc(/C=C\I)c1)N2 (centres undefined) | 2.53

test system: not listed separately; assay: Ratio of drug uptake in occipital lobe to cerebellum in anesthetized cynomolgus monkey after 235 mins postinjection; format: ADME, organism-based, Macaca fascicularis; conditions: in vivo

SMILES | Ratio
O=C(OCC[18F])C1C2CCC(CC1c1cccc(/C=C\I)c1)N2 (centres undefined) | 0.9

test system: Midbrain; assay: Drug uptake in anesthetized cynomolgus monkey brain midbrain after 145 mins postinjection; format: ADME, organism-based, Macaca fascicularis; conditions: in vivo

SMILES | Drug uptake
O=C(OCC[18F])C1C2CCC(CC1c1cccc(/C=C\I)c1)N2 (centres undefined) | 3.85

test system: Midbrain; assay: Drug uptake in anesthetized cynomolgus monkey brain midbrain after 175 mins postinjection; format: ADME, organism-based, Macaca fascicularis; conditions: in vivo

SMILES | Drug uptake
O=C(OCC[18F])C1C2CCC(CC1c1cccc(/C=C\I)c1)N2 (centres undefined) | 3.46

test system: Pons; assay: Drug uptake in anesthetized cynomolgus monkey brain pons after 2.5 mins postinjection; format: ADME, organism-based, Macaca fascicularis; conditions: in vivo

SMILES | Drug uptake
O=C(OCC[18F])C1C2CCC(CC1c1cccc(/C=C\I)c1)N2 (centres undefined) | 0.44

test system: Pons; assay: Drug uptake in anesthetized cynomolgus monkey brain pons after 22.5 mins postinjection; format: ADME, organism-based, Macaca fascicularis; conditions: in vivo, 0.375 h

SMILES | Drug uptake
O=C(OCC[18F])C1C2CCC(CC1c1cccc(/C=C\I)c1)N2 (centres undefined) | 3.05

test system: Pons; assay: Drug uptake in anesthetized cynomolgus monkey brain pons after 35 mins postinjection; format: ADME, organism-based, Macaca fascicularis; conditions: in vivo

SMILES | Drug uptake
O=C(OCC[18F])C1C2CCC(CC1c1cccc(/C=C\I)c1)N2 (centres undefined) | 3.29

test system: Pons; assay: Drug uptake in anesthetized cynomolgus monkey brain pons after 55 mins postinjection; format: ADME, organism-based, Macaca fascicularis; conditions: in vivo

SMILES | Drug uptake
O=C(OCC[18F])C1C2CCC(CC1c1cccc(/C=C\I)c1)N2 (centres undefined) | 3.27

test system: Medulla; assay: Drug uptake in anesthetized cynomolgus monkey brain medulla after 2.5 mins postinjection; format: ADME, organism-based, Macaca fascicularis; conditions: in vivo

SMILES | Drug uptake
O=C(OCC[18F])C1C2CCC(CC1c1cccc(/C=C\I)c1)N2 (centres undefined) | 0.52

test system: Medulla; assay: Drug uptake in anesthetized cynomolgus monkey brain medulla after 15.5 mins postinjection; format: ADME, organism-based, Macaca fascicularis; conditions: in vivo

SMILES | Drug uptake
O=C(OCC[18F])C1C2CCC(CC1c1cccc(/C=C\I)c1)N2 (centres undefined) | 3.53

test system: Medulla; assay: Drug uptake in anesthetized cynomolgus monkey brain medulla after 22.5 mins postinjection; format: ADME, organism-based, Macaca fascicularis; conditions: in vivo, 0.375 h

SMILES | Drug uptake
O=C(OCC[18F])C1C2CCC(CC1c1cccc(/C=C\I)c1)N2 (centres undefined) | 3.83

test system: Medulla; assay: Drug uptake in anesthetized cynomolgus monkey brain medulla after 45 mins postinjection; format: ADME, organism-based, Macaca fascicularis; conditions: in vivo, 0.75 h

SMILES | Drug uptake
O=C(OCC[18F])C1C2CCC(CC1c1cccc(/C=C\I)c1)N2 (centres undefined) | 4

test system: not listed separately; assay: Ratio of drug uptake in putamen to cerebellum in anesthetized cynomolgus monkey after 45 mins postinjection; format: ADME, organism-based, Macaca fascicularis; conditions: in vivo, 0.75 h

SMILES | Ratio
O=C(OCC[18F])C1C2CCC(CC1c1cccc(/C=C\I)c1)N2 (centres undefined) | 1.2

test system: not listed separately; assay: Octanol-water partition coefficient, log P at pH 7.4 by shake-flask method; format: physicochemical; conditions: not given

SMILES | logD
O=C(OCC[18F])C1C2CCC(CC1c1cccc(/C=C\I)c1)N2 (centres undefined) | 1.69

test system: not listed separately; assay: Ratio of drug uptake in putamen to cerebellum in anesthetized cynomolgus monkey after 155 mins postinjection; format: ADME, organism-based, Macaca fascicularis; conditions: in vivo

SMILES | Ratio
O=C(OCC[18F])C1C2CCC(CC1c1cccc(/C=C\I)c1)N2 (centres undefined) | 1.8

test system: Medulla; assay: Drug uptake in anesthetized cynomolgus monkey brain medulla after 225 mins postinjection; format: ADME, organism-based, Macaca fascicularis; conditions: in vivo, 3.75 h

SMILES | Drug uptake
O=C(OCC[18F])C1C2CCC(CC1c1cccc(/C=C\I)c1)N2 (centres undefined) | 2.37

test system: Medulla; assay: Drug uptake in anesthetized cynomolgus monkey brain medulla after 235 mins postinjection; format: ADME, organism-based, Macaca fascicularis; conditions: in vivo

SMILES | Drug uptake
O=C(OCC[18F])C1C2CCC(CC1c1cccc(/C=C\I)c1)N2 (centres undefined) | 2.32

test system: Medulla; assay: Drug uptake in anesthetized cynomolgus monkey brain medulla after 115 mins postinjection; format: ADME, organism-based, Macaca fascicularis; conditions: in vivo

SMILES | Drug uptake
O=C(OCC[18F])C1C2CCC(CC1c1cccc(/C=C\I)c1)N2 (centres undefined) | 3.43

test system: not listed separately; assay: Ratio of drug uptake in putamen to cerebellum in anesthetized cynomolgus monkey after 215 mins postinjection; format: ADME, organism-based, Macaca fascicularis; conditions: in vivo

SMILES | Ratio
O=C(OCC[18F])C1C2CCC(CC1c1cccc(/C=C\I)c1)N2 (centres undefined) | 1.8

test system: Caudate; assay: Drug uptake in anesthetized cynomolgus monkey brain caudate after 4.5 mins postinjection; format: ADME, organism-based, Macaca fascicularis, Caudate nucleus; conditions: in vivo, 0.075 h

SMILES | Drug uptake
O=C(OCC[18F])C1C2CCC(CC1c1cccc(/C=C\I)c1)N2 (centres undefined) | 1.23

test system: Caudate; assay: Drug uptake in anesthetized cynomolgus monkey brain caudate after 22.5 mins postinjection; format: ADME, organism-based, Macaca fascicularis, Caudate nucleus; conditions: in vivo, 0.375 h

SMILES | Drug uptake
O=C(OCC[18F])C1C2CCC(CC1c1cccc(/C=C\I)c1)N2 (centres undefined) | 3.32

test system: Caudate; assay: Drug uptake in anesthetized cynomolgus monkey brain caudate after 27.5 mins postinjection; format: ADME, organism-based, Macaca fascicularis, Caudate nucleus; conditions: in vivo

SMILES | Drug uptake
O=C(OCC[18F])C1C2CCC(CC1c1cccc(/C=C\I)c1)N2 (centres undefined) | 3.39

test system: Caudate; assay: Drug uptake in anesthetized cynomolgus monkey brain caudate after 115 mins postinjection; format: ADME, organism-based, Macaca fascicularis, Caudate nucleus; conditions: in vivo

SMILES | Drug uptake
O=C(OCC[18F])C1C2CCC(CC1c1cccc(/C=C\I)c1)N2 (centres undefined) | 3.17

test system: Caudate; assay: Drug uptake in anesthetized cynomolgus monkey brain caudate after 215 mins postinjection; format: ADME, organism-based, Macaca fascicularis, Caudate nucleus; conditions: in vivo

SMILES | Drug uptake
O=C(OCC[18F])C1C2CCC(CC1c1cccc(/C=C\I)c1)N2 (centres undefined) | 2.09

test system: not listed separately; assay: Ratio of drug uptake in occipital lobe to cerebellum in anesthetized cynomolgus monkey after 0.5 mins postinjection; format: ADME, organism-based, Macaca fascicularis; conditions: in vivo

SMILES | Ratio
O=C(OCC[18F])C1C2CCC(CC1c1cccc(/C=C\I)c1)N2 (centres undefined) | 0.8

test system: Thalamus; assay: Drug uptake in anesthetized cynomolgus monkey brain thalamus after 2.5 mins postinjection; format: ADME, organism-based, Macaca fascicularis; parameters: unit not given here; conditions: in vivo

SMILES | Drug uptake
O=C(OCC[18F])C1C2CCC(CC1c1cccc(/C=C\I)c1)N2 (centres undefined) | 0.43

test system: Putamen; assay: Drug uptake in anesthetized cynomolgus monkey brain putamen after 12.5 mins postinjection; format: ADME, organism-based, Macaca fascicularis; parameters: unit not given here; conditions: in vivo

SMILES | Drug uptake
O=C(OCC[18F])C1C2CCC(CC1c1cccc(/C=C\I)c1)N2 (centres undefined) | 3.33

test system: Putamen; assay: Drug uptake in anesthetized cynomolgus monkey brain putamen after 18.5 mins postinjection; format: ADME, organism-based, Macaca fascicularis; parameters: unit not given here; conditions: in vivo

SMILES | Drug uptake
O=C(OCC[18F])C1C2CCC(CC1c1cccc(/C=C\I)c1)N2 (centres undefined) | 3.78

test system: Putamen; assay: Drug uptake in anesthetized cynomolgus monkey brain putamen after 95 mins postinjection; format: ADME, organism-based, Macaca fascicularis; parameters: unit not given here; conditions: in vivo

SMILES | Drug uptake
O=C(OCC[18F])C1C2CCC(CC1c1cccc(/C=C\I)c1)N2 (centres undefined) | 4.02

test system: Thalamus; assay: Drug uptake in anesthetized cynomolgus monkey brain thalamus after 75 mins postinjection; format: ADME, organism-based, Macaca fascicularis; parameters: unit not given here; conditions: in vivo, 1.25 h

SMILES | Drug uptake
O=C(OCC[18F])C1C2CCC(CC1c1cccc(/C=C\I)c1)N2 (centres undefined) | 4.16

test system: Thalamus; assay: Drug uptake in anesthetized cynomolgus monkey brain thalamus after 85 mins postinjection; format: ADME, organism-based, Macaca fascicularis; parameters: unit not given here; conditions: in vivo

SMILES | Drug uptake
O=C(OCC[18F])C1C2CCC(CC1c1cccc(/C=C\I)c1)N2 (centres undefined) | 4.04

test system: Thalamus; assay: Drug uptake in anesthetized cynomolgus monkey brain thalamus after 155 mins postinjection; format: ADME, organism-based, Macaca fascicularis; parameters: unit not given here; conditions: in vivo

SMILES | Drug uptake
O=C(OCC[18F])C1C2CCC(CC1c1cccc(/C=C\I)c1)N2 (centres undefined) | 3.03

test system: Midbrain; assay: Drug uptake in anesthetized cynomolgus monkey brain midbrain after 6.5 mins postinjection; format: ADME, organism-based, Macaca fascicularis; parameters: unit not given here; conditions: in vivo

SMILES | Drug uptake
O=C(OCC[18F])C1C2CCC(CC1c1cccc(/C=C\I)c1)N2 (centres undefined) | 2.99

test system: Midbrain; assay: Drug uptake in anesthetized cynomolgus monkey brain midbrain after 12.5 mins postinjection; format: ADME, organism-based, Macaca fascicularis; parameters: unit not given here; conditions: in vivo

SMILES | Drug uptake
O=C(OCC[18F])C1C2CCC(CC1c1cccc(/C=C\I)c1)N2 (centres undefined) | 3.95

test system: Midbrain; assay: Drug uptake in anesthetized cynomolgus monkey brain midbrain after 18.5 mins postinjection; format: ADME, organism-based, Macaca fascicularis; parameters: unit not given here; conditions: in vivo

SMILES | Drug uptake
O=C(OCC[18F])C1C2CCC(CC1c1cccc(/C=C\I)c1)N2 (centres undefined) | 4.37

test system: Midbrain; assay: Drug uptake in anesthetized cynomolgus monkey brain midbrain after 35 mins postinjection; format: ADME, organism-based, Macaca fascicularis; parameters: unit not given here; conditions: in vivo

SMILES | Drug uptake
O=C(OCC[18F])C1C2CCC(CC1c1cccc(/C=C\I)c1)N2 (centres undefined) | 4.85

test system: Midbrain; assay: Drug uptake in anesthetized cynomolgus monkey brain midbrain after 45 mins postinjection; format: ADME, organism-based, Macaca fascicularis; parameters: unit not given here; conditions: in vivo, 0.75 h

SMILES | Drug uptake
O=C(OCC[18F])C1C2CCC(CC1c1cccc(/C=C\I)c1)N2 (centres undefined) | 4.9

test system: Midbrain; assay: Drug uptake in anesthetized cynomolgus monkey brain midbrain after 85 mins postinjection; format: ADME, organism-based, Macaca fascicularis; parameters: unit not given here; conditions: in vivo

SMILES | Drug uptake
O=C(OCC[18F])C1C2CCC(CC1c1cccc(/C=C\I)c1)N2 (centres undefined) | 4.67
